Reference: patent US10307383B2, “Cosmetic composition for preventing or ameliorating hypersensitive skin comprising cedrol or derivatives thereof, or pharmaceutically acceptable salts thereof” (University of Seoul Industry Cooperation Foundation, priority 2017, dated 2019)
≈ marks a conversion by molar mass, not a printed value.

Tests used:
[1] = test system: psoriasis induced mice (imiquimod); assay: Skin flair reduction effect in the psoriasis induced mice (PASI); type: in vivo, Balb/c mouse
Procedure: (§1) To investigate the delayed effect of cedrol, cedryl acetate, and alpha-cedrene on the development of psoriasis, total 5 groups of mice were prepared (8 mice/group). First, the hair of the entire back of the 8-week-old male Balb/c mouse whose immune system was weakened was removed by using a hair clipper (Kimlaube Hair pen 325,327, Rikei, Korea). In the middle of the shaved back of the mouse, 2 mg of imiquimod (3M Health Care Limited, England) was applied in the area of 2 cm×1.5 cm and also 1,125 mg of imiquimod was applied on the right ear of the mouse every day once a day to induce psoriasis.
(§2) The mice prepared above were divided into the distilled water treated group (IMQ), the cedrol treated group (C), the cedryl acetate treated group (CA), and the alpha-cedrene treated group (CE). At this time, the mice were orally treated with distilled water at the concentration of 200 μl/mouse and cedrol or its derivatives at the concentration of 200 μl/mouse (100 mg/kg). The day when distilled water or the compound administration started was recorded as day 0 and the administration was performed once a day for a week, during which photo-recording was performed every day (FIGS. 2A˜2D). In the meantime, instead of applying imiquimod, 40 mg of vaseline was applied on the back of the control group (CONT) and 22.5 mg of vaseline was applied on the right ear of the control group. And the control group was orally administered with distilled water (200 μl/mouse).
Then, the psoriasis area severity index (PASI) was calculated to confirm the reduction effect of the compounds on skin flair. Skin flair is a symptom of psoriasis. The application of IMQ can induce skin flair.

[2] = test system: psoriasis induced mice (imiquimod); assay: Recovery effect on keratosis of the psoriasis induced mice after termination of imiquimod (PASI); type: in vivo, Balb/c mouse
Procedure: (§3) Imiquimod was applied to the psoriasis induced mice which had developed psoriasis for a week in Example <2-1>. The application was stopped 8 days after the application began. The groups CON and IMQ were treated with distilled water, the group C was treated with cedrol, the group CA was treated with cedryl acetate, the group CE was treated with alpha-cedrene alone at the concentration of 100 mg/kg in 200 μl, every day via oral-administration. Day 8 was the day the imiquimod application was stopped, since then the compounds were administered for 1 week once a day, during which photo-recording was performed (FIGS. 13A˜13D).
(§4) Then, the psoriasis area severity index (Psoriasis Area Severity Index, PASI) was calculated, based on which the recovery effect on keratosis was evaluated.

IL-17A expression = assay: IL-17A inhibition assay in IL-17 luciferase-(LUCPorter) stable reporter cell line; settings: for Inhibition of IL-17A expression (%) Experiment-1 / Inhibition of IL-17A expression (%) Experiment-2 / Inhibition of IL-17A expression (%) Experiment-3: 6 hours; for expression of IL-17A (luciferase units): control group 2,582 units
[3] = test system: psoriasis induced mice (imiquimod); assay: Recovery effect on hemorrhage spots of the psoriasis induced mice; type: in vivo, Balb/c mouse
Procedure: as §3
The psoriasis induced mice orally administered with cedrol, cedryl acetate, and alpha-cedrene of Example <3-1> were observed by the naked eye, and the number of mice showing the recovery of hemorrhage spots was counted.

[4] = test system: psoriasis induced mice (imiquimod); assay: Ear thickness reduction effect in the psoriasis induced mice (PASI); type: in vivo, Balb/c mouse; settings: day 7, 100 mg/kg oral once a day, IMQ applied; IMQ alone 3.5
Procedure: as §1, §2
Then, the psoriasis area severity index (PASI) was calculated with the range of 1˜4 to confirm the reduction effect of the compounds on the ear thickness.

[5] = test system: psoriasis induced mice (imiquimod); assay: Recovery effect on skin flair of the psoriasis induced mice after termination of imiquimod (PASI); type: in vivo, Balb/c mouse
Procedure: as §3, §4

[6] = test system: psoriasis induced mice (imiquimod); assay: Keratosis reduction effect in the psoriasis induced mice (PASI); type: in vivo, Balb/c mouse
Procedure: as §1, §2
Then, the psoriasis area severity index (PASI) was calculated to confirm the reduction effect of the compounds on keratosis. Keratosis is a symptom of psoriasis. The application of IMQ can induce keratosis.

[7] = test system: psoriasis induced mice (imiquimod); assay: Recovery effect on ear thickness of the psoriasis induced mice after termination of imiquimod (PASI); type: in vivo, Balb/c mouse
Procedure: as §3
The psoriasis area severity index (Psoriasis Area Severity Index, PASI) was given from the point 1 to point 4, based on which the recovery effect on the ear thickness was evaluated.

[8] = test system: psoriasis induced mice (imiquimod); assay: Skin wrinkle reduction effect in the psoriasis induced mice; type: in vivo, Balb/c mouse; settings: for number of mice showing skin wrinkles: IMQ applied, 8 mice/group
Procedure: as §1, §2
The psoriasis induced mice orally administered with cedrol, cedryl acetate, and alpha-cedrene of Example <2-1> were observed by the naked eye, and the number of mice showing skin wrinkles was counted. Skin wrinkle is a symptom of psoriasis, and when IMQ is applied, skin keratinization increases and accordingly skin wrinkles are formed as time goes by.

[9] = test system: psoriasis induced mice (imiquimod); assay: Skin pain reduction effect in the psoriasis induced mice (back pinch, mice counted); type: in vivo, Balb/c mouse; settings: 100 mg/kg oral
Procedure: as §1, §2
When the back of the psoriasis induced mice orally administered with cedrol, cedryl acetate, and alpha-cedrene of Example <2-1> was pinched, those mice who sound painfully with strong rejection were counted. Skin pain is a symptom of psoriasis, and when IMQ is applied, skin pain becomes stronger as time goes by.

[10] = day 8 (imiquimod application stopped), 100 mg/kg oral
[11] = day 15, 100 mg/kg oral once a day after termination of imiquimod
[12] = Homo sapiens, read-out: Average Inhibition (%)

SMILES: CC1=CC[C@@]23C[C@@H]1C(C)(C)[C@@H]2CC[C@H]3C [alpha-cedrene, Alpha-cedrene]
- skin flair reduction effect, comparison in words ([1]; 100 mg/kg oral, 7 days): strongest reduction effect
- skin flair mean point (PASI) ([1]; day 7, 100 mg/kg oral once a day, IMQ applied, IMQ alone 4.00): 3.33 point
- PASI reflecting keratosis [2, 10]: 4.0±0.6 point
- PASI reflecting keratosis [2, 11]: 0.3±0.6 point
- expression of IL-17A, % by the control (IL-17A expression; 10 μg/ml): 79 % by the control
- Inhibition of IL-17A expression (%) Experiment-1 (IL-17A expression; 10 μg/ml): 6%
- Inhibition of IL-17A expression (%) Experiment-2 (IL-17A expression; 10 μg/ml): 3%
- Inhibition of IL-17A expression (%) Experiment-3 (IL-17A expression; 10 μg/ml): 21%
- expression of IL-17A (luciferase units) (IL-17A expression; 10 μg/ml): 2,042±114 units
- expression of IL-17A, % by the control (IL-17A expression; 100 μg/ml): 68 % by the control
- Inhibition of IL-17A expression (%) Experiment-1 (IL-17A expression; 100 μg/ml): 21%
- Inhibition of IL-17A expression (%) Experiment-2 (IL-17A expression; 100 μg/ml): 11%
- Inhibition of IL-17A expression (%) Experiment-3 (IL-17A expression; 100 μg/ml): 32%
- expression of IL-17A (luciferase units) (IL-17A expression; 100 μg/ml): 1,757±310 units
- expression of IL-17A, % by the control (IL-17A expression; 1,000 μg/ml): 65 % by the control
- Inhibition of IL-17A expression (%) Experiment-1 (IL-17A expression; 1000 μg/ml): 36%
- Inhibition of IL-17A expression (%) Experiment-2 (IL-17A expression; 1000 μg/ml): 23%
- Inhibition of IL-17A expression (%) Experiment-3 (IL-17A expression; 1000 μg/ml): 35%
- expression of IL-17A (luciferase units) (IL-17A expression; 1,000 μg/ml): 1,688±64 units
- suppression of the expression of IL-17A (in words) (IL-17A expression; 10, 100, or 1,000 μg/ml): dose-dependently
- inhibition at 10 µg/mL (IL-17A expression; [12]): 10%
- inhibition at 100 µg/mL (IL-17A expression; [12]): 21.3%
- inhibition at 1000 µg/mL (IL-17A expression; [12]): 31.3%
- IC50 (IL-17A expression; Homo sapiens, read-out: IC50 to inhibit the IL-17A expression by 50%): 1510 µg/mL (≈ 7.37 mM)
- number of mice showing hemorrhage spots ([3]; day 8, 100 mg/kg oral, 8 mice/group): 4 mice
- number of mice showing hemorrhage spots ([3]; day 16, 100 mg/kg oral after termination of imiquimod): no mouse
- mean ear thickness point (PASI) [4]: 2.6 point
- PASI reflecting skin flair [5, 10]: 4.0±1.0 point
- skin flair disappearance (in words) ([5]; on day 16, 100 mg/kg oral after termination of imiquimod): skin flair of all mice disappeared
- keratosis reduction effect, comparison in words ([6]; 100 mg/kg oral, 7 days): strongest reduction effect
- keratosis mean point (PASI) ([6]; day 7, 100 mg/kg oral once a day, IMQ applied, IMQ alone 3.8): 2.66 point
- PASI reflecting the ear thickness [7, 10]: 4.0±0.0 point
- PASI reflecting the ear thickness [7, 11]: 0.7±0.6 point
- skin wrinkle reduction effect, comparison in words ([8]; 100 mg/kg oral, 7 days): strongest reduction effect
- number of mice showing skin wrinkles ([8]; day 6, 100 mg/kg oral): one
- number of mice showing skin wrinkles ([8]; day 7, 100 mg/kg oral, IMQ alone 3): one
- skin pain reduction effect, comparison in words ([9]; 7 days): strongest reduction effect
- number of mice showing skin pain ([9]; during the 7 day observation period, IMQ applied): no mice
